Experimental data as given in patent US8404677B2, “Kinase inhibitors” (Genosco, priority 2009, dated 2013).

Legend:
OVCAR-4 = experiment: cells; format: cell-based; conditions: OVCAR-4 (Ovarian Cancer)
human PIM1 = target: T1, human PIM1 (Homo sapiens, UniProt P11309); experiment: Inhibition of enzymatic kinase activity (LANCE Ulight); format: biochemical; conditions: at 1 μM concentration; read-out: PIM1 percentage inhibition
T1 construct: Purified full-length human SYK, ZAP70, PIM1, PYK2; purchased Carna Biosciences
Method: Inhibition of Enzymatic SYK, ZAP70, PYK2, FAK, PIM1, RET, FLT3, JAK2 and LRRK2 Kinase Activity
Compounds of the invention were initially diluted to 10 mM in 100% DMSO (CALBIOCHEM™) for storage and made into kinase buffer solution to create a compound concentration ranging from 1 uM and 10 uM. Serial dilutions of compounds of the invention were dispensed into a 96-well plate (GREINER BIOSCIENCES™) at 6 μL each. Purified full-length human SYK, ZAP70, PIM1, PYK2 and truncated human FAK, RET, FLT3, JAK2, and LRRK2 (CARNA BIOSCIENCES™) were diluted in kinase buffer and added to the compound solutions and pre-incubated for 30 minutes at room temperature (1 hour for PYK2). […] The reaction mixture was incubated for 1 hour (2 hours for PYK2). Following the incubation, the stop solution made with EDTA, water, and Lance detection buffer ([…]™) was added (12 μL each) to stop phosphorylation. […] Substrate phosphorylation was a function of the 665 nm emission measured following the addition of the detection solution and 50 minutes of incubation.

MDA-MB-468 = experiment: cells; format: cell-based; conditions: MDA-MB-468 (Breast Cancer)
NCI-H460 = experiment: cells; format: cell-based; conditions: NCI-H460 (NSCLC)
HCT-116 = experiment: cells; format: cell-based; conditions: HCT-116 (Colon Cancer)
DU-145 = experiment: cells; format: cell-based; conditions: DU-145 (Prostate Cancer)
UACC-62 = experiment: cells; format: cell-based; conditions: UACC-62 (Melanoma)
human ZAP70 = target: T2, human ZAP70 (Homo sapiens, UniProt P43403); experiment: Inhibition of enzymatic kinase activity (LANCE Ulight); format: biochemical; conditions: at 1 μM concentration; read-out: ZAP70 percentage inhibition
T2 construct: Purified full-length human SYK, ZAP70, PIM1, PYK2; purchased Carna Biosciences
T2 sequence (P43403 1-619): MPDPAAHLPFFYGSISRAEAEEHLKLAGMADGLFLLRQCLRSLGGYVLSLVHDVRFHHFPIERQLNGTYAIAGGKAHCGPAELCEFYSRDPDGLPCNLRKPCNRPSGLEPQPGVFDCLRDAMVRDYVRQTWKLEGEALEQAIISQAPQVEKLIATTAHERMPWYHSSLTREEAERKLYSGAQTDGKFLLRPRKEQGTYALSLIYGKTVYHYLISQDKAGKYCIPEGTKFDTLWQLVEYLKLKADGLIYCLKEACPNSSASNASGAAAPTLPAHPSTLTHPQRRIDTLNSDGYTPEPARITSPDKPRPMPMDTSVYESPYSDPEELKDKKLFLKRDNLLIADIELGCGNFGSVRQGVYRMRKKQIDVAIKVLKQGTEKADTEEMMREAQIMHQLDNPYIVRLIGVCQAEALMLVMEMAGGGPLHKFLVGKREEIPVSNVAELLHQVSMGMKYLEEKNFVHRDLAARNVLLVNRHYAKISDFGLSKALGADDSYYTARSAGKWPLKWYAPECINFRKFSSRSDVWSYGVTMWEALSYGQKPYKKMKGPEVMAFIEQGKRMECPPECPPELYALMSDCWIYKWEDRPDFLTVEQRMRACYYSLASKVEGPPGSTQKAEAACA

truncated human FAK = target: T3, truncated human FAK (Homo sapiens, UniProt Q05397); experiment: as above; format: biochemical; conditions: at 1 μM concentration; read-out: FAK percentage inhibition
T3 construct: truncated human FAK, RET, FLT3, JAK2, and LRRK2 (CARNA BIOSCIENCES™); purchased Carna Biosciences

truncated human RET = target: T4, truncated human RET (Homo sapiens, UniProt P07949); experiment: as above; format: biochemical
T4 construct: truncated human FAK, RET, FLT3, JAK2, and LRRK2 (CARNA BIOSCIENCES™); purchased Carna Biosciences
T4 sequence (P07949 658-1114 limits assumed): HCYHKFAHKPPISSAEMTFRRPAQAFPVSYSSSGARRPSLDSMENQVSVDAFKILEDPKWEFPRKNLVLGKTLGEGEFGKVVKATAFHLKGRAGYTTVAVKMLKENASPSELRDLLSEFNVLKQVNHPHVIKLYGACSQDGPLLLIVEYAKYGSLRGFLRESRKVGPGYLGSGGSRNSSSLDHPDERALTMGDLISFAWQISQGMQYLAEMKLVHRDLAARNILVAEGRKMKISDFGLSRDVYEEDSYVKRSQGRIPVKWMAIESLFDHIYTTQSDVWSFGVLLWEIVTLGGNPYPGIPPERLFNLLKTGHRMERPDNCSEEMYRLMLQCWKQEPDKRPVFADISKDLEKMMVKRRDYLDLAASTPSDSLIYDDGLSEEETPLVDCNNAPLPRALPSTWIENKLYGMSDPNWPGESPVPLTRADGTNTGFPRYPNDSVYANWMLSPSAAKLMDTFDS

truncated human LRRK2 = truncated human LRRK2 (Homo sapiens, UniProt Q5S007); experiment: as above; format: biochemical
[1] = Homo sapiens, read-out: LC50 (the source's name)

Chain of truncated human LRRK2 (Q5S007 1879-2138 limits assumed): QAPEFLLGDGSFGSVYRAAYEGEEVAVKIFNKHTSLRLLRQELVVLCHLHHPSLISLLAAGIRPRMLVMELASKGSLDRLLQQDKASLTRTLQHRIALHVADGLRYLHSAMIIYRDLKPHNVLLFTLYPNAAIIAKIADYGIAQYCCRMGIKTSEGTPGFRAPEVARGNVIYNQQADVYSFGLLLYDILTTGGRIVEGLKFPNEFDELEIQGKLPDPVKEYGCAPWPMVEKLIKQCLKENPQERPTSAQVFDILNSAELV
T1 sequence (P11309 whole entry): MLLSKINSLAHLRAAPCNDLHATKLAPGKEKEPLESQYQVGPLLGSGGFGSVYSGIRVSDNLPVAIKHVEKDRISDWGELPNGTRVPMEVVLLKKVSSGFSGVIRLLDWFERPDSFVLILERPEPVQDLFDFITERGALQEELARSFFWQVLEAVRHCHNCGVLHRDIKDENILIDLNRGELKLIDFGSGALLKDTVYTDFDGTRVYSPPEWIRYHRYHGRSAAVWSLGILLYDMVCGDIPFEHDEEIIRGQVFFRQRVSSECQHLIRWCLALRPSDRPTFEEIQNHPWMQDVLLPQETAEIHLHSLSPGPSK
T3 sequence (Q05397 376-1052 limits assumed): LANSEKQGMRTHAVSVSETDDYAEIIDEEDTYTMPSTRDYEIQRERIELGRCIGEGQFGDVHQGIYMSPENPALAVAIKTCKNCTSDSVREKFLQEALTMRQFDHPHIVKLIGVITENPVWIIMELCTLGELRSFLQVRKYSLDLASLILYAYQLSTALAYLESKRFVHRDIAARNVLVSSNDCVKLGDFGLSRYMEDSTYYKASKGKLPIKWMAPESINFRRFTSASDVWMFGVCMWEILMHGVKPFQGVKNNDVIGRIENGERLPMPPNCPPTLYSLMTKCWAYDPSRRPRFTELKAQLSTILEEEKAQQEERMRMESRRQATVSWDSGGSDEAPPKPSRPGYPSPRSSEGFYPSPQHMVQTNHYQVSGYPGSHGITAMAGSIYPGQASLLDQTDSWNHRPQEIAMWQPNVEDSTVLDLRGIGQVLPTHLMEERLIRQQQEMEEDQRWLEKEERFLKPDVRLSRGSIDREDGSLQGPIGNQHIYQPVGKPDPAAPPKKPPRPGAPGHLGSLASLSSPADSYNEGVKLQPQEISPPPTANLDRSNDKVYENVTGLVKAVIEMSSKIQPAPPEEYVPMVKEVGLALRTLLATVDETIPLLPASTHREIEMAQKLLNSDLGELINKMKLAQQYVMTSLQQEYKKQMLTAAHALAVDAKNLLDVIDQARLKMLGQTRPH

O=c1[nH]ccc2nc(N3CCC(O)CC3)nc(Nc3cccc(C(F)(F)F)c3)c12 [Compound 6, 2-(4-hydroxypiperidin-1-yl)-4-(3-(trifluoromethyl)phenylamino)pyrido[4,3-d]pyrimidine-5(6H)-one]
GI50 (OVCAR-4; Homo sapiens): 1.74 µM
IC50 (OVCAR-4; Homo sapiens): 9.12 µM
LC50 (OVCAR-4; Homo sapiens): 100 µM
TGI (OVCAR-4): 36.3 µM
inhibition at 1 µM (human PIM1): 32%
GI50 (MDA-MB-468; Homo sapiens): 1.78 µM
IC50 (MDA-MB-468; Homo sapiens): 4.68 µM
CC50 (MDA-MB-468; [1]): 100 µM
TGI (MDA-MB-468): 7.08 µM
GI50 (NCI-H460; Homo sapiens): 1.62 µM
IC50 (NCI-H460; Homo sapiens): 2.4 µM
CC50 (NCI-H460; [1]): 64.6 µM
TGI (NCI-H460): 15.1 µM
TGI (HCT-116): 12.3 µM
GI50 (HCT-116; Homo sapiens): 0.871 µM
IC50 (HCT-116; Homo sapiens): 1.32 µM
CC50 (HCT-116; [1]): 75.9 µM
TGI (DU-145): 19.5 µM
GI50 (DU-145; Homo sapiens): 1.55 µM
IC50 (DU-145; Homo sapiens): 6.03 µM
CC50 (DU-145; [1]): 100 µM
GI50 (UACC-62; Homo sapiens): 1.82 µM
IC50 (UACC-62; Homo sapiens): 3.98 µM
CC50 (UACC-62; [1]): 27.5 µM
TGI (UACC-62): 6.92 µM
inhibition at 1 µM (human ZAP70): 49%
inhibition at 1 µM (truncated human FAK): 78%
IC50 (truncated human RET): 0.0942 µM
IC50 (truncated human LRRK2): 0.054 µM
